The text below walks through data of article PMC3399945 (Journal of the American Chemical Society, 2012).

The nature of series [1]: Amide hydrogen-deuterium exchange. Format: physicochemical. Particulars: for H/D rate constant: D2O/TFE-d3 80/20, 20 °C, NMR, in duplicate; for Stabilization, −ΔG (free energy of protection): from H/D exchange, 20 °C.
A short description of series [2]: Thermal denaturation monitored by CD / Zimm–Bragg model. Format: physicochemical. Particulars: from broad thermal transition, CD in 10% TFE/PBS, Zimm–Bragg simulation.
The target of series [3] is N-terminal His6-tagged MDM2 (25–117) (Homo sapiens, UniProt Q00987). The series is described as follows: Fluorescence polarization-based competition binding assay with Flu-p53. Particulars: comparison with previously reported affinity of 1 (ref 38). Background: Polarisation of emitted light reports the rotation of a fluorescent probe.
Series [4] is classed as physicochemical. The note with it: 10% TFE in PBS, 25 °C, 100 μM peptide, pH 7.4.

Square brackets hold non-standard residues; d marks the D form. Peptide text beside a SMILES is read from it. * marks the point of attachment. X1 = NC(=O)CC[C@@H]1NC(=O)CC/C=C/CN(CCC(=O)*)C(=O)[C@H](CCC(=O)O)NC1=O; β3hL = CC(C)C[C@H](N)CC(=O)O

Take `CC(C)C[C@@H](CC(=O)N[C@@H](Cc1c[nH]c2ccccc12)C(=O)N[C@@H](CCCCN)C(=O)N[C@@H](CC(C)C)C(=O)N[C@H](CC(=O)N[C@@H](CO)C(N)=O)CC(C)C)NC(=O)[C@H](CC(=O)O)NC(=O)[C@H](CO)NC(=O)[C@H](Cc1ccccc1)NC(=O)CCN1C/C=C/CCC(=O)N[C@@H](CCC(N)=O)C(=O)N[C@@H](CCC(=O)O)C1=O` [Peptide 2] (X1-FSD[β3hL]WKL[β3hL]S-NH2): the H/D rate constant amounted to 0.0003809 h⁻¹ in series [1] (residue 4 (F^4)); 0.0003809 h⁻¹ in series [1] (residue 5 (S^5)); 6.9e-06 h⁻¹ in series [1] (residue 8 (W^8)); 2.8e-06 h⁻¹ in series [1] (residue 9 (K^9)); 5.85e-05 h⁻¹ in series [1] (residue 12 (S^12)). The “nucleation constant σ” value in series [2] was not below 1.

For the molecule `CC(C)C[C@@H](CC(=O)N[C@@H](CC(C)C)C(=O)N[C@@H](CO)C(N)=O)NC(=O)[C@H](CCCCN)NC(=O)[C@H](Cc1c[nH]c2ccccc12)NC(=O)[C@H](CC(C)C)NC(=O)C[C@H](CC(=O)O)NC(=O)[C@H](CO)NC(=O)[C@H](Cc1ccccc1)NC(=O)CN1C/C=C/CCC(=O)N[C@@H](CCC(N)=O)C(=O)N[C@@H](CCC(=O)O)CC1=O` [Peptide 3], the “affinity for MDM2 compared with HBS α-helix 1 (in words)” value in series [3] is “comparable to that previously reported for the optimized HBS p53 α-helix analog 1”. In addition, the H/D rate constant in series [1] (residue 4 (F^4)) turned out to be 1.33e-05 h⁻¹; in series [1] (residue 5 (S^5)), 1.07e-05 h⁻¹; in series [1] (residue 8 (W^8)), 1.4e-06 h⁻¹; in series [1] (residue 9 (K^9)), 8e-07 h⁻¹; in series [1] (residue 12 (S^12)) it was 2.6e-06 h⁻¹. Further, the “nucleation constant σ” value in series [2] is not below 1.

Take “XQEG*FSDLWKLLS-NH2 (sidechain bridge or staple) [Peptide 1]”: the H/D rate constant in series [1] (residue 4 (F^4)) was 0.0003808 h⁻¹; in series [1] (residue 5 (S^5)), 0.0003808 h⁻¹; in series [1] (residue 8 (W^8)), 1.8e-06 h⁻¹; in series [1] (residue 9 (K^9)), 5.1e-06 h⁻¹; in series [1] (residue 12 (S^12)) it was 7.8e-06 h⁻¹. The “Stabilization, −ΔG (free energy of protection)” value is -0.58 kcal/mol in series [1] (residue 6 (D^6 in 1 and 2, Dβ^6 in 3)); 0.52 kcal/mol in series [1] (residue 7 (L^7 in 1 and 3, Lβ^7 in 2)); 1.22 kcal/mol in series [1] (residue 8 (W^8)); 1.23 kcal/mol in series [1] (residue 9 (K^9)); 1.40 kcal/mol in series [1] (residue 10 (L^10 in 1 and 2, Lβ^10 in 3)); 1.04 kcal/mol in series [1] (residue 11 (L^11 in 1 and 3, Lβ^11 in 2)). For the same molecule, in series [1] (residue 12 (S^12)), the “Stabilization, −ΔG (free energy of protection)” value came out at 1.42 kcal/mol. Also, the “CD signature (in words)” value in series [4] was “CD signature typical of a canonical α-helix, with double minima near 206 and 222 nm and a maximum at 190 nm”.
